Test results taken from patent US8012944B2, “Method for treating cancer using IAP antisense oligomer and chemotherapeutic agent” (Pharmascience Inc., priority 2003, dated 2011).
Oligonucleotides are written 5' to 3', each unit as a sugar letter and its base; * is a phosphorothioate linkage, no mark a phosphodiester; rarer units and linkages stand in square brackets, end groups in braces. Plain capitals give the bases only. d = 2'-deoxy (DNA); m = 2'-O-methyl

Key:
Assay type in all cases: cell-based, human
[1] = test system: XIAP protein; test: XIAP protein knock-down in T24 cells (XIAP ELISA, relative to total protein); settings: for XIAP protein levels relative to total protein, compared to mock transfection (in words): first screen of the library
Source text: (§1) We used TaqMan quantitative PCR (described below) to assay for changes in mRNA levels after oligonucleotide treatment. We employed ELISA for determining XIAP protein levels and western blotting for determining HIAP1 protein levels. Transfection conditions were optimized with Lipofectamine plus or Lipofectamine 2000 (Life Technologies, Canada) on T24 bladder carcinoma cells or H460 non-small cell lung carcinoma cells, or lipofectin on SF-295 glioblastoma cells, using a fluorescein-tagged sense oligonucleotide (5′-mGmAGAAGATGACTGGTAAmCmA-3′; SEQ ID NO: 261) from XIAP spanning the start codon as a control. The results were visualized and gauged by epi-fluorescence microscopy. In the case of T24 cells, transfections were further optimized based on the ability of a published oligonucleotide to downregulate survivin expression (Li et al., Nat. Cell Biol. 1:461-466, 1999) (5′-U/TGTGCTATTCTGTGAAU/TU/T-3′ SEQ ID NO: 262). We optimized the transfection conditions based on the TaqMan results of survivin RNA knock-down detected with PCR primers and fluorescent probe, described in detail below. […] We then applied these conditions to screen for XIAP protein knock-down using the oligo library against T24 cells.
A standard colorimetric XIAP ELISA assay was performed using an affinity-purified rabbit polyclonal antibody to XIAP as a capture antibody, and was detected with a XIAP monoclonal antibody (MBL, Japan) and a biotinylated anti-mouse Ig antibody and horseradish peroxidase-conjugated streptavidin and TMB substrate. Alternatively, a polyclonal XIAP or HIAP1 antibody may be used to measure XIAP or HIAP1 protein levels, respectively.
The XIAP synthetic library of 96 antisense oligonucleotides was first screened for decreases in XIAP protein levels. Specifically, T24 cells (1.5×10^4 cells/well) were seeded in wells of a 96-well plate on day 1, and were cultured in antibiotic-free McCoy's medium for 24 hours. On day 2, the cells were transfected with XIAP antisense oligonucleotides as described above (oligonucleotides are labeled according to their plated position, i.e., A1 to H12, and include two repeats, A13 and B13 that contain lyophilized DNA pellets that stuck to the sealing membrane). Briefly, the nucleobase oligomers were diluted in 10 μl/well of serum-free, antibiotic-free McCoy's medium and then PLUS reagent was added. Lipofectamine was diluted in 10 μl/well of serum-free, antibiotic-free McCoy's medium, and both mixes were incubated for 15 minutes at room temperature. The mixes were then combined and incubated for 15 minutes at room temperature.
In the meantime, the complete medium was removed from the cells and 50 μl/well of serum-free, antibiotic-free medium was added to the cells. The transfection mixes were added to the well, and the cells were incubated for three hours. Then 30 μl/well of serum-free, antibiotic-free medium and 100 μl/well of antibiotic-free complete medium, containing 20% fetal bovine serum were added to each well.
At day 3, XIAP RNA levels were measured using quantitative real-time PCR techniques, as described above. At day 4, XIAP protein levels were measured by ELISA (FIGS. 1A, 1C, 1E, 1G, 1I, and 1K), and total cellular protein was measured biochemically (FIGS. 1B, 1D, 1F, 1H, 1J, and 1L; used to normalize the XIAP protein levels). The results were compared to a mock transfection sample (treated with the transfection agent but no oligonucleotide DNA was added, and then processed as for the other samples). Time course experiments determined that the optimal time for protein knock-down to be around 12 to 24 hours. […]

[2] = test system: XIAP RNA; test: XIAP RNA knock-down in T24 cells (TaqMan quantitative PCR)
Source text: as §1
(§2) RNA was extracted from cells lysed in RLT buffer (QIAGEN, Valencia, Calif.), and purified using QIAGEN RNeasy columns/kits. Real-time quantitative PCR was performed on a Perkin-Elmer ABI 7700 Prism PCR machine. RNA was reverse transcribed and amplified according to the TaqMan Universal PCR Master Mix protocol of PE Biosystems, using primers and probes designed to specifically recognize XIAP, HIAP1, survivin, or GAPDH. For human survivin, the forward primer was 5′-[…]-3′ (SEQ ID NO: 263), the reverse primer was 5′-GAAAGGAAAGCGCAACCG-3′ (SEQ ID NO: 264), and the probe was 5′-(FAM)[…](TAMRA)-3′ (SEQ ID NO: 265). For human HIAP1, the forward primer was 5′-[…]-3′ (SEQ ID NO: 266), the reverse primer was 5′-[…]-3′ (SEQ ID NO: 267), and the probe was 5′-(FAM)[…](TAMRA)-3′ (SEQ ID NO: 268). For human XIAP, the forward primer was 5′-[…]-3′ (SEQ ID NO: 269), the reverse primer was 5′-[…]-3′ (SEQ ID NO: 270), and the probe was 5′-(FAM)[…](TAMRA)-3′ (SEQ ID NO: 271). For human GAPDH, the forward primer was 5′-GAAGGTGAAGGTCGGAGTC-3′ (SEQ ID NO: 272), the reverse primer was 5′-GAAGATGGTGATGGGATTC-3′ (SEQ ID NO: 273), and the probe was 5′-(JOE)[…](TAMRA)-3′ (SEQ ID NO: 274). FAM is 6-carboxyfluoroscein, JOE is 6-carboxy-4,5-dichloro-2,7-dimethoxyfluoroscein, and TAMRA is 6-carboxy-N,N,N′,N′-tetramethylrhodamine. FAM and JOE are 5′ reporter dyes, while TAMRA is a 3′ quencher dye.
(§3) Relative quantification of gene expression was performed as described in the PE Biosystems manual using GAPDH as an internal standard. The comparative Ct (cycle threshold) method was used for relative quantitation of IAP mRNA levels compared to GAPDH mRNA levels. Briefly, real-time fluorescence measurements were taken at each PCR cycle and the threshold cycle (Ct) value for each sample was calculated by determining the point at which fluorescence exceeded a threshold limit of 30 times the baseline standard deviation. The average baseline value and the baseline SD are calculated starting from the third cycle baseline value and stopping at the baseline value three cycles before the signal starts to exponentially rise. The PCR primers and/or probes for the specific IAPs were designed to span at least one exon-intron boundary separated by 1 kb or more of genomic DNA, to reduce the possibility of amplifying and detecting genomic DNA contamination. The specificity of the signal, and possible contamination from DNA, were verified by treating some RNA samples with either DNase or RNase, prior to performing the reverse transcription and PCR reaction steps.
The XIAP synthetic library of 96 antisense oligonucleotides was first screened for decreases in XIAP protein levels. […]

[3] = test system: HIAP1 mRNA; test: HIAP1 mRNA in SF295 cells, basal conditions (TaqMan); set-up: decrease of HIAP1 mRNA compared to mock or scrambled survivin control: concentration or dose not given beside the values; settings: for HIAP1 mRNA levels (in words): SF295 cells (FIG. 21)
Procedure: as §2, §3
A library of 15 HIAP1 antisense nucleobase oligomers as oligonucleotides was screened for protein knock-down by western blot analysis and for RNA knock-down by TaqMan, using the primers and probes described in Example 3, above, under two different conditions. HIAP1 RNA levels may be detected using standard Northern blot analyses or RT-PCR techniques. The antisense oligonucleotides were administered to cells under basal conditions or under cycloheximide-induction conditions (24 hour treatment with sub-toxic doses). Cycloheximide (CHX) can lead to a 10- to 200-fold induction of HIAP1 mRNA depending on the cell line treated. […] This effect of CHX is via two distinct mechanisms of action. First, CHX activates NFkB, a known transcriptional inducer of HIAP1, by blocking the de novo synthesis of a labile protein, IkB, which is an inhibitor of NFkB. This effect is mimicked by puromycin, another protein synthesis inhibitor, and by TNF-alpha, which induces a signaling cascade leading to the phosphorylation, ubiquination, and degradation of IkB.
SF295 glioblastoma cells were transfected with lipofectin and oligonucleotide (scrambled survivin, no oligonucleotide, antisense APO 1 to APO 15) or left untreated. […]

[4] = test system: XIAP mRNA; test: XIAP mRNA knock-down in H460 cells (real-time RT-PCR / TaqMan); settings: 2 × 2 MBO; NCI-H460 cells, 9 hours post-transfection; relative level (mock control 1.01)
[5] = test system: XIAP mRNA; test: as above
Procedure: as §2, §3
A portion of the 96 nucleobase oligomers depicted in Table 2 were rescreened for their ability to knock-down XIAP mRNA in NCI-H460 cells at […] post-transfection.
One day prior to transfection, H460 cells were plated in 6- or 96-well tissue culture plates. Phosphorothioate antisense oligonucleotides were delivered into cells with Lipofectamine 2000 (Life Technologies) in the form of liposome-oligonucleotide complexes. Following a 4.5 or 6 h transfection, the transfection medium was replaced with RPMI medium containing 10% FBS, and the cells incubated for another 24 or 48 h.
Total RNA from H460 cells treated with liposome-oligonucleotide complexes for 6 hours was immediately isolated using RNeasy mini spin columns and DNase treatment (QIAGEN, Valencia, Calif.). Specific XIAP mRNA was measured using a real-time quantitative RT-PCR method. […]

“ACCATTCTGGATACCAGAA (mA*mCdCdAdTdTdCdTdGdGdAdTdAdCdCdAdGmA*mA) [Code C5]” was tested, and the “XIAP down-regulation T24 protein” value [1] was 54%, the “XIAP protein levels relative to total protein, compared to mock transfection (in words)” value [1] was “some decrease” and the “XIAP down-regulation T24 RNA” value [2] was 71%.

In the case of “ACCCATGCACAAAACTACC (chemistry not given here) [APO 4]”, the “HIAP1 mRNA levels (in words)” value [3] is reported as “stress-induced increase in HIAP1 mRNA”.

In the case of “ACCCTGGATACCATTTAGC (antisense; chemistry not fully specified) [Code F8]”, the “XIAP RNA” value [4] is reported as 0.62, the “XIAP protein levels relative to total protein, compared to mock transfection (in words)” value [1] is reported as “some decrease” and the “XIAP down-regulation H460 RNA” value [5] is reported as 47%.

With “AGTTTTCAACTTTGTACTG (antisense; sugars from the 5' end m2 d15 m2, backbone and T or U not given here; further chemistry not fully specified) [Code D5]” the “XIAP down-regulation T24 protein” value [1] was 33%, the “XIAP protein levels relative to total protein, compared to mock transfection (in words)” value [1] was “some decrease” and the “XIAP down-regulation T24 RNA” value [2] was 39%.

For “CAGGGTTCCTCGGGTATAT (antisense; sugars from the 5' end m2 d15 m2, backbone and T or U not given here; further chemistry not fully specified) [Code B6]”, the “XIAP down-regulation T24 protein” value [1] was 47%, the “XIAP protein levels relative to total protein, compared to mock transfection (in words)” value [1] was “some decrease” and the “XIAP down-regulation T24 RNA” value [2] was 51%.

For “CCTGTCCTTTAATTCTTAT (chemistry not given here) [APO 13]”, the “HIAP1 mRNA levels (in words)” value [3] was “stress-induced increase in HIAP1 mRNA”.

For “CTACAGCTGCATGACAACT (antisense; sugars from the 5' end m2 d15 m2, backbone and T or U not given here; further chemistry not fully specified) [Code F4]”, the “XIAP down-regulation T24 protein” value [1] was 43%, the “XIAP protein levels relative to total protein, compared to mock transfection (in words)” value [1] was “some decrease” and the “XIAP down-regulation T24 RNA” value [2] was 33%.

“GAAAGTAATATTTAAGCAG (antisense; chemistry not fully specified) [Code E2]” was tested, and the “XIAP down-regulation T24 protein” value [1] was 51%, the “XIAP protein levels relative to total protein, compared to mock transfection (in words)” value [1] was “some decrease” and the “XIAP down-regulation H460 RNA” value [5] was 60%. The “XIAP down-regulation T24 RNA” value [2] was 54%.

“GCATTTTCGTTATTCATTG (chemistry not given here) [APO 11]” was tested, and the “HIAP1 mRNA levels (in words)” value [3] was “stress-induced increase in HIAP1 mRNA”.

In the case of “GCTGAGTCTCCATATTGCC [G4] (chemistry not fully specified) [Code G4]”, the “XIAP down-regulation T24 protein” value [1] is reported as 48%, the “XIAP protein levels relative to total protein, compared to mock transfection (in words)” value [1] is reported as “some decrease” and the “XIAP down-regulation H460 RNA” value [5] is reported as 51%. For the same sequence, the “XIAP down-regulation T24 RNA” value [2] was 34%.

For “GGCTGCAATATTTCCTTTT (chemistry not given here) [APO 14]”, the “HIAP1 mRNA levels (in words)” value [3] was “stress-induced increase in HIAP1 mRNA”.

“GTGTAGTAGAGTCCAGCAC (antisense; sugars from the 5' end m2 d15 m2, backbone, methylation of C and T or U not given here; further chemistry not fully specified) [Code F6]” was tested, and the “XIAP down-regulation T24 protein” value [1] was 39%, the “XIAP protein levels relative to total protein, compared to mock transfection (in words)” value [1] was “some decrease” and the “XIAP down-regulation T24 RNA” value [2] was 34%.

In the case of “TTCAACATGGAGATTCTAA (chemistry not given here) [APO 9]”, the “decrease of HIAP1 mRNA compared to mock or scrambled survivin control” value ([3]; SF295 cells, six hours after transfection) is reported as ~50%.

For “TTGTAGACTGCGTGGCACT (antisense; sugars from the 5' end m2 d15 m2, backbone and T or U not given here; further chemistry not fully specified) [Code B5]”, the “XIAP RNA” value [4] was 0.38 and the “XIAP down-regulation H460 RNA” value [5] was 61%.

In the case of “TTTCTCAGTAGTTCTTACC (antisense; sugars from the 5' end m2 d15 m2, backbone, methylation of C and T or U not given here; further chemistry not fully specified) [Code D9]”, the “XIAP RNA” value [4] is reported as 0.73 and the “XIAP down-regulation H460 RNA” value [5] is reported as 39%.
